Patent publication EP3135113A1, “USE OF HERBICIDAL COMPOSITIONS FOR CONTROLLING UNWANTED VEGETATION” (BASF SE, priority 2015, dated 2017)

System: Amaranthus palmeri
Assay: field test, post-emergence spray, visual injury rating of Palmer amaranth (scale 0 to 100)
Assay type: in vivo
Conditions: 3 days after treatment, 0.25% by volume non-ionic surfactant (Induce), 185 liter/ha
Description: The following examples summarized in table 1 serve to illustrate the invention: • Dicamba was applied as Engenia™ herbicide [BAPMA salt - (bis(3-aminopropyl)methylamine))], while 2,4-DB was applied as the commercially available Butyrac® 200 (dimethylamine salt). Herbicides were applied at an appropriate weight of each product dissolved in 1 liter of water. All herbicide treatments were applied with 0.25% by volume of a non-ionic surfactant (Induce®; an adjuvant composition consisting of alkyl aryl polyoxyalkane ethers, alkanolamides, dimethyl siloxane and free fatty acids). The spray solution was applied by a CO2 powered backpack sprayer delivering the spray solution at a rate of 185 liter/ha. The spray solution was applied to a field naturally populated with Palmer amaranth (Amaranthus palmeri) with an average height of 4-6 inches in height, however, plants both larger and smaller plants were in the field at the time of application as well. Palmer amaranth was assessed for visual injury 3 days after treatment and injury was rated on a scale from 0 to 100, whereby 0 equals no herbicidal response and 100 equals complete control of the Palmer amaranth.

COc1c(Cl)ccc(Cl)c1C(=O)O [dicamba, 3,6-dichloro-2-methoxybenzoic acid]
herbicidal activity against Amaranthus palmeri (% control) found (Exp. No. 1, dicamba 420 g/ha a.i.): 60%

4-(2,4-dichlorophenoxy)butanoic acid [2,4-DB]
herbicidal activity against Amaranthus palmeri (% control) found (Exp. No. 2, 2,4-DB 17.5 g/ha a.i.): 0%
herbicidal activity against Amaranthus palmeri (% control) found (Exp. No. 3, 2,4-DB 35 g/ha a.i.): 5%
herbicidal activity against Amaranthus palmeri (% control) found (Exp. No. 4, 2,4-DB 52.5 g/ha a.i.): 15%
